Assay results as given in patent publication US7638535B2, “4-(aminomethyl)-piperidine benzamides as 5HT4-antagonists” (Janssen Pharmaceutica N.V., priority 2003, dated 2009).

Tests used:
[1] = target: T1, h5-HT4b (Homo sapiens, UniProt Q13639); experiment: 5HT4 antagonism: [3H]GR113808 binding to membranes of h5-HT4b-HEK 293 clone 9 cells; conditions: displacement of [3H]GR113808 0.1 nM, h5-HT4b-HEK 293 membranes, 30 min at 25° C.; read-out: pIC50 (5HT4 antagonistic data) (converted)
T1 construct: expressed in transfected cells; host or cells: HEK 293 (clone 9), membrane preparation
T1 sequence (Q13639 whole entry): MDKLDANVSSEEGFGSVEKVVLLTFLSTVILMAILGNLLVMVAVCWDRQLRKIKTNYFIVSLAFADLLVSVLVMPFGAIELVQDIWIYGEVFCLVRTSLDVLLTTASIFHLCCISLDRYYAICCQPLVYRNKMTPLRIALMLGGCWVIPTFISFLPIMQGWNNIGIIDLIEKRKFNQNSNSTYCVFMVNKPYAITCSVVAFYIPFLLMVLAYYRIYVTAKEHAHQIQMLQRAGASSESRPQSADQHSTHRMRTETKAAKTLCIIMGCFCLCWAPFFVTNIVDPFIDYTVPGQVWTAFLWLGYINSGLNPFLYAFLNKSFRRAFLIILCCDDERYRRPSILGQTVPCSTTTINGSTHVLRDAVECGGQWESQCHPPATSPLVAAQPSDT
Outline: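 Membranes from h5-HT4b-HEK 293 clone 9 cells were incubated with [3H]GR113808 (0.1 nM as added) in 50 mM HEPES-NaOH pH 7.4 for 30 min at 25 °C. Non-specific binding was defined with a 5-HT4 agonist. Bound radioligand was separated by filtration over PEI-soaked GF/B filters.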

[2] = Metabolic stability: % metabolism after 60 minutes incubation with active liver microsomes; assay type: in vitro ADME; conditions: compound 5 μM, microsomes 1 mg/ml, NADPH-generating system, 60 minutes at 37 degrees Celsius
Experimental: Sub-cellular tissue preparations were made according to Gorrod et al. (Xenobiotica 5:453-462, 1975) by centrifugal separation after mechanical homogenization of tissue. Liver tissue was rinsed in ice-cold 0.1 M Tris-HCl (pH 7.4) buffer to wash excess blood. Tissue was then blotted dry, weighed and chopped coarsely using surgical scissors. The tissue pieces were homogenized in 3 volumes of ice-cold 0.1 M phosphate buffer (pH 7.4).
Tissue homogenates were centrifuged at 9000×g for 20 minutes at 4° C. The resulting supernatant was stored at −80° C. and is designated ‘S9’.
The S9 fraction can be further centrifuged at 100.000×g for 60 minutes (4° C.). The resulting supernatant was carefully aspirated, aliquoted and designated ‘cytosol’. The pellet was re-suspended in 0.1 M phosphate buffer (pH 7.4) in a final volume of 1 ml per 0.5 g original tissue weight and designated ‘microsomes’.
All sub-cellular fractions were aliquoted, immediately frozen in liquid nitrogen and stored at −80° C. until use.
For the samples to be tested, the incubation mixture contained PBS (0.1M), compound (5 μM), microsomes (1 mg/ml) and a NADPH-generating system (0.8 mM glucose-6-phosphate, 0.8 mM magnesium chloride and 0.8 Units of glucose-6-phosphate dehydrogenase). Control samples contained the same material but the microsomes were replaced by heat inactivated (10 minutes at 95 degrees Celsius) microsomes. Recovery of the compounds in the control samples was always 100%.
The mixtures were preincubated for 5 minutes at 37 degrees Celsius. The reaction was started at time point zero (t=0) by addition of 0.8 mM NADP and the samples were incubated for 60 minutes (t=60). The reaction was terminated by the addition of 2 volumes of DMSO. Then the samples were centrifuged for 10 minutes at 900×g and the supernatants were stored at room temperature for no longer as 24 hours before analysis. All incubations were performed in duplo. Analysis of the supernatants was performed with LC-MS analysis. Elution of the samples was performed on a Xterra MS C18 (50×4.6 mm, 5 μm, Waters, US). An Alliance 2790 (Supplier: Waters, US) HPLC system was used. Elution was with buffer A (25 mM ammoniumacetate (pH 5.2) in H2O/acetonitrile (95/5)), solvent B being acetonitrile and solvent C methanol at a flow rate of 2.4 ml/min. The gradient employed was increasing the organic phase concentration from 0% over 50% B and 50% C in 5 min up to 100% B in 1 minute in a linear fashion and organic phase concentration was kept stationary for an additional 1.5 minutes. Total injection volume of the samples was 25 μl.
A Quatro triple quadrupole mass spectrometer fitted with and ESP source was used as detector. The source and the desolvation temperature were set at 120 and 350° C. respectively and nitrogen was used as nebuliser and drying gas. Data were acquired in positive scan mode (single ion reaction). Cone voltage was set at 10 V and the dwell time was 1 second.
Metabolic stability was expressed as % metabolism of the compound after 60 minutes (equation given as example) of incubation in the presence of active microsomes (E(act))

Compound	IC50 [1] [nM]	melting point [°C]	% metabolised compound (compounds of present invention) [2] [%]
CC(=O)CCCN1CC[C@@H](CNC(=O)c2cc(N)c(Cl)c3c2OCCO3)[C@H](O)C1 [compound 44]	22.9	130	–
CS(=O)(=O)NCCN1CC[C@@H](CNC(=O)c2cc(N)c(Cl)c3c2OCCO3)[C@H](O)C1 [compound 63]	69.2	180	–
Cc1nccnc1NCCN1CC[C@@H](CNC(=O)c2cc(N)c(Cl)c3c2OCCO3)[C@H](O)C1 [compound 68]	30.2	100	–
CCCCN1CC[C@@H](CNC(=O)c2cc(N)cc3c2OCCO3)[C@H](O)C1 [compound 107]	5.5	> 160	–
CNc1cc2c(c(C(=O)NC[C@@H]3CCN(CCCOC)C[C@H]3O)c1)OCCCO2 [compound 113]	126	126	–
Cc1cc2c(c(C(=O)NC[C@@H]3CCN(CCCCNS(C)(=O)=O)C[C@H]3O)c1)OCCCO2 [compound 193]	1.69	134	–
COCCCN1CC[C@@H](CNC(=O)c2cc(C)cc3c2OCCCO3)[C@H](O)C1 [compound 200]	0.955	108	15
Cc1cc2c(c(C(=O)NC[C@@H]3CCN(CCCC(=O)N4CCN(C)CC4)C[C@H]3O)c1)OCCCO2 [compound 238]	0.851	> 112	–
